Test results from ChEMBL document CHEMBL1126438, “DNA alkylation properties of the duocarmycins: (+)-duocarmycin A, epi-(+)-duocarmycin A, ent-()-duocarmycin A and epi,ent-()-duocarmycin A” (Bioorg Med Chem Lett, 1992).
≈ marks a conversion by molar mass, not a printed value.

How the values were obtained:
[1] = test system: B16; assay: In vitro evaluation for cytotoxicity against B16 melanoma.; type: functional, cell-based; details: Mus musculus
[2] = test system: P388; assay: In vitro evaluation for cytotoxicity against P388 murine leukemia cell line; type: functional, cell-based, Mus musculus
[3] = test system: L1210; assay: In vitro evaluation for cytotoxicity against L1210 cell line; type: functional, cell-based; details: Mus musculus
[4] = Mus musculus, P388, read-out: IC50

SMILES | IC50 [1] | IC50 [2, 4] | IC50 [3] | IC50 ([2]; p388)
COC(=O)[C@@]1(C)N=C2C(=O)C=C3N(C(=O)c4cc5cc(OC)c(OC)c(OC)c5[nH]4)C[C@@H]4C[C@]34C2=C1O | > 3 ng/mL | ≥ 0.3 ng/mL | > 11 ng/mL | 
COC(=O)[C@]1(C)N=C2C(=O)C=C3N(C(=O)c4cc5cc(OC)c(OC)c(OC)c5[nH]4)C[C@H]4C[C@@]34C2=C1O | 0.2 ng/mL (≈ 0.394 nM) |  | 0.1 ng/mL (≈ 0.197 nM) | 0.002 ng/mL (≈ 0.00394 nM)
COC(=O)[C@@]1(C)N=C2C(=O)C=C3N(C(=O)c4cc5cc(OC)c(OC)c(OC)c5[nH]4)C[C@H]4C[C@@]34C2=C1O | 0.8 ng/mL (≈ 1.58 nM) | 0.007 ng/mL (≈ 0.0138 nM) | 0.8 ng/mL (≈ 1.58 nM) | 
COC(=O)[C@]1(C)N=C2C(=O)C=C3N(C(=O)c4cc5cc(OC)c(OC)c(OC)c5[nH]4)C[C@@H]4C[C@]34C2=C1O | > 3 ng/mL | ≥ 0.3 ng/mL | > 12 ng/mL | 
